Results: ChEMBL document CHEMBL6071170, “Development of novel focal adhesion kinase (FAK) inhibitors for targeting cancer: Structural insights and therapeutic potential” (Eur J Med Chem, 2024)
pIC50, pKi: −log10 of the molar value. Values belong to the molecule of their own block, whether it stands above or below them.

Legend:
[1] = molecular target: ALK tyrosine kinase receptor (Homo sapiens, UniProt Q9UM73); test: Inhibition of ALK (unknown origin)
Focal adhesion kinase 1 [2] = molecular target: T1, Focal adhesion kinase 1 (Homo sapiens, UniProt Q05397); test: Inhibition of FAK (unknown origin)
[3] = molecular target: Proto-oncogene tyrosine-protein kinase ROS (Homo sapiens, UniProt P08922); test: Inhibition of ROS1 (unknown origin)
Focal adhesion kinase 1 [4] = molecular target: T1, Focal adhesion kinase 1; test: Binding affinity to FAK (unknown origin) assessed as inhibition constant
[5] = molecular target: Protein cereblon/Focal adhesion kinase 1 (Homo sapiens, UniProt Q05397+Q96SW2); test: PROTAC activity at CRBN/FAK in human PC3 cells assessed as protein degradation incubated for 12 hrs by Western blot analysis relative to control; assay type: cell-based; details: pc-3
[6] = molecular target: Fibroblast growth factor receptor (Homo sapiens, UniProt P22607+P11362+P22455+P21802); test: Inhibition of human recombinant FGFR by FRET assay; assay type: protein assay
[7] = molecular target: T2, Protein deacetylase HDAC6 (Homo sapiens, UniProt Q9UBN7); test: Inhibition of HDAC6 (unknown origin)
T2 sequence (Q9UBN7 whole entry): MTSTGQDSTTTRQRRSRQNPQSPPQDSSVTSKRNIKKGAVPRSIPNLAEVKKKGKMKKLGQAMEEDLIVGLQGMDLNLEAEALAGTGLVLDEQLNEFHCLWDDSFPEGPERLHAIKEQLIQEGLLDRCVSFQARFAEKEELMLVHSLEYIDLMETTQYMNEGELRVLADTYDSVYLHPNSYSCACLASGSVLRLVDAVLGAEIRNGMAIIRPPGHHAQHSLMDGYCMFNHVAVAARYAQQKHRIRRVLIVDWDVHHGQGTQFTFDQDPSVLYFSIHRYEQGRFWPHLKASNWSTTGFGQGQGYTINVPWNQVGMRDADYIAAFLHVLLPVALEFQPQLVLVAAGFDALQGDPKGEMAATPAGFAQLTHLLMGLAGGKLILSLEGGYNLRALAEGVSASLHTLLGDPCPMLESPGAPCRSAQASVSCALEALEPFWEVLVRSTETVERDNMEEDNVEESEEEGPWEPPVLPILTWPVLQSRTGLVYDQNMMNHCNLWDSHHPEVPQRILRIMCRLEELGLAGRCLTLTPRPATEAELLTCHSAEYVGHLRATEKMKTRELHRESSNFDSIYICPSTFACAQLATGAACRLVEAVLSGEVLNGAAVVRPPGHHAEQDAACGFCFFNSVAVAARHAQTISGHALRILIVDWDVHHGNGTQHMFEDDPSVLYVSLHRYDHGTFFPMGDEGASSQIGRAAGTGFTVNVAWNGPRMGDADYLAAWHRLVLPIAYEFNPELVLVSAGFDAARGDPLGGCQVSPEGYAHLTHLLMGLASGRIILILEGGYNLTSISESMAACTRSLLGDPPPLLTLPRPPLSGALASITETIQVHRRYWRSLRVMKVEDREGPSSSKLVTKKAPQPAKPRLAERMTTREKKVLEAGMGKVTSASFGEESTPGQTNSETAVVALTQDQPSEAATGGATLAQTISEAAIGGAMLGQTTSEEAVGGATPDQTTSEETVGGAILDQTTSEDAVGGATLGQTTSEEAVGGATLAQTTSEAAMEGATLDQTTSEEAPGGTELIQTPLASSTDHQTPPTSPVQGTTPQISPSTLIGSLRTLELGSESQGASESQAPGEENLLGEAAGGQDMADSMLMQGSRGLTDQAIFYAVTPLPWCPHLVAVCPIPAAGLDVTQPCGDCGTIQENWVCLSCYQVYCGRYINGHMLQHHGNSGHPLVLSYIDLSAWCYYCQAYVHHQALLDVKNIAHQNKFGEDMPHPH

Focal adhesion kinase 1 [8] = molecular target: T1, Focal adhesion kinase 1; test: Inhibition of FAK (unknown origin) by FRET analysis
Focal adhesion kinase 1 [9] = molecular target: T1, Focal adhesion kinase 1; test: Inhibition of N-terminal his-tagged human (1 to 422 residues) FAK
Focal adhesion kinase 1 [10] = molecular target: T1, Focal adhesion kinase 1; test: Inhibition of FAK (unknown origin) by HTRF assay
[11] = molecular target: T3, Protein-tyrosine kinase 2-beta (Homo sapiens, UniProt Q14289); test: Inhibition of PYK2 (unknown origin)
BXPC-3 = test: Antiproliferative activity against human BXPC-3 cells; assay type: functional, cell-based
Focal adhesion kinase 1 [12] = molecular target: T1, Focal adhesion kinase 1; test: Inhibition of FAK (unknown origin) by ADP-Glo kinase assay
[13] = molecular target: Epidermal growth factor receptor (Homo sapiens, UniProt P00533, T790M); test: Inhibition of EGFR T790M mutant (unknown origin)
[14] = Oral bioavailability in mouse; assay type: ADME, organism-based; details: in vivo
Focal adhesion kinase 1 [15] = molecular target: T1, Focal adhesion kinase 1; test: Inhibition of human FAK by FRET assay
[16] = Plasma stability in human assessed as half life by LC-MS/MS analysis; assay type: ADME, cell-free
[17] = molecular target: T3, Protein-tyrosine kinase 2-beta; test: Inhibition of PYK2 (unknown origin) by KinomeScan assay
[18] = molecular target: Serine/threonine-protein kinase PLK1 (Homo sapiens, UniProt P53350); test: Inhibition of PLK1 (unknown origin)
Chain of Serine/threonine-protein kinase PLK1 (P53350 whole entry): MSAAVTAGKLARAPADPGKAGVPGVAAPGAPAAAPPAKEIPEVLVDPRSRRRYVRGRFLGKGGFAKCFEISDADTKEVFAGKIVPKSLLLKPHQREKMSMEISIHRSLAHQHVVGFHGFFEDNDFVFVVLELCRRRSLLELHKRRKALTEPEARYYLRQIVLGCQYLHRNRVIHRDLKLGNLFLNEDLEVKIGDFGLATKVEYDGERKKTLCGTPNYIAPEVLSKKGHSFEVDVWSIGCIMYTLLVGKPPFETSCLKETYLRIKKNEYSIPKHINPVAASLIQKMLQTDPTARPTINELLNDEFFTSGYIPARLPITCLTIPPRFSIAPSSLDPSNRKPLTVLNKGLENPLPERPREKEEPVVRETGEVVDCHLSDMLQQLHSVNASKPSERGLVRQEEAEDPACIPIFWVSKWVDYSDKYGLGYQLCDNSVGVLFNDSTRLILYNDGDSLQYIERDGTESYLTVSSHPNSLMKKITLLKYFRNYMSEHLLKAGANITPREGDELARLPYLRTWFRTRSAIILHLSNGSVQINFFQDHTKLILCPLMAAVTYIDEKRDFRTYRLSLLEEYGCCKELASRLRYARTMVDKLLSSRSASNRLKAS

T1 sequence (Q05397 whole entry): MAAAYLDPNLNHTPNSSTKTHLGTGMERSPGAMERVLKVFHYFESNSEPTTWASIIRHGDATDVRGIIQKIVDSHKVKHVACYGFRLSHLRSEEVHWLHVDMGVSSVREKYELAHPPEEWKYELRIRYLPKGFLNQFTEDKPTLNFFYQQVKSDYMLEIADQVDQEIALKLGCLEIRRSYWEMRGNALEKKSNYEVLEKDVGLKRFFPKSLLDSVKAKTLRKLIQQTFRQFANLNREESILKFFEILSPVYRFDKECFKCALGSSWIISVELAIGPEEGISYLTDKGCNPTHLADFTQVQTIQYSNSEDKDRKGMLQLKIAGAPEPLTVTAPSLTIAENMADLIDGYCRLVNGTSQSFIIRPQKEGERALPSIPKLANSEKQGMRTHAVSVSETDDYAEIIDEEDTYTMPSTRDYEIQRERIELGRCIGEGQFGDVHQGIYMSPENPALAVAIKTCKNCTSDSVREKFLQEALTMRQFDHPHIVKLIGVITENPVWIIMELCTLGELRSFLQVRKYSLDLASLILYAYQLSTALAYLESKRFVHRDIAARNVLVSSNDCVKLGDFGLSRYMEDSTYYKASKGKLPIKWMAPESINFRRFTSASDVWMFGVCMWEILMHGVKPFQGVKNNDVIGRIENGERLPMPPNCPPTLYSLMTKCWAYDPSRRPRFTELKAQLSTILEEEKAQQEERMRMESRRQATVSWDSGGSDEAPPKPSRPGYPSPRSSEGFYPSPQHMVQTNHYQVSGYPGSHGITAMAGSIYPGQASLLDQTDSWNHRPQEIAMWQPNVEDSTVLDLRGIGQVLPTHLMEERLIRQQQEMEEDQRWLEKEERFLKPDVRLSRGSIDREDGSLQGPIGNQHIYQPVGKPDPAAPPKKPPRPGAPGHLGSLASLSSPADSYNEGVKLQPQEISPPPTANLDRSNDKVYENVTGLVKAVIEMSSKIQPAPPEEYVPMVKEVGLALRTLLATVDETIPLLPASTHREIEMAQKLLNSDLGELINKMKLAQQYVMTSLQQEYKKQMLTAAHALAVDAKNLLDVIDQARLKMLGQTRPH
T3 sequence (Q14289 whole entry): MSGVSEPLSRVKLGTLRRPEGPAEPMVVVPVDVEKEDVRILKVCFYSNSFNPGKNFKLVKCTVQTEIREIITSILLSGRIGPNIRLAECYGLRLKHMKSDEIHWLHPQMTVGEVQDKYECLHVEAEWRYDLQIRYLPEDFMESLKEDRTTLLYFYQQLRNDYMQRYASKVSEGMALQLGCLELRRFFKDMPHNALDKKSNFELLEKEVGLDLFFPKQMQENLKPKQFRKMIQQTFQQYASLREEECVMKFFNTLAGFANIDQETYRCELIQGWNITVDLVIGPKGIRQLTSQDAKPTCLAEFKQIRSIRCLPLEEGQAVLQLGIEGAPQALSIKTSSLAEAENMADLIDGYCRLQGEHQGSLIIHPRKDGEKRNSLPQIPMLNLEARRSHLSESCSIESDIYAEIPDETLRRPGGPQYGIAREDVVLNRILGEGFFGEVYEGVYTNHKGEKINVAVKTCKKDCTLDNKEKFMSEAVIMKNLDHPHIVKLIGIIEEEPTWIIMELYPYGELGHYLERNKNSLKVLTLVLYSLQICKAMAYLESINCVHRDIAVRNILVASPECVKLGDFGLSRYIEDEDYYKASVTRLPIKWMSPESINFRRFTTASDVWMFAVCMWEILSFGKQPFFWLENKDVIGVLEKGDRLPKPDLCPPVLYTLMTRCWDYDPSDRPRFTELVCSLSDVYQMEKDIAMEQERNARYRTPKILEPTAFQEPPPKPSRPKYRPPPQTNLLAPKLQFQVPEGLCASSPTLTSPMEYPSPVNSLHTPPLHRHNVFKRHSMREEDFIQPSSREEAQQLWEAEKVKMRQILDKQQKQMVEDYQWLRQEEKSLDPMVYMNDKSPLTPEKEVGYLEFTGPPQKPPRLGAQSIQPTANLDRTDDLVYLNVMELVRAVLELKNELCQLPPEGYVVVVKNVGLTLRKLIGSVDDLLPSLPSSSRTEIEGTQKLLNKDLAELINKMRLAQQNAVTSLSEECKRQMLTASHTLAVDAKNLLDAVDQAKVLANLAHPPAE
Chain of Protein cereblon/Focal adhesion kinase 1 (Q05397 whole entry): as the sequence (Q05397 whole entry) above
Chain of Protein cereblon/Focal adhesion kinase 1 (Q96SW2 whole entry): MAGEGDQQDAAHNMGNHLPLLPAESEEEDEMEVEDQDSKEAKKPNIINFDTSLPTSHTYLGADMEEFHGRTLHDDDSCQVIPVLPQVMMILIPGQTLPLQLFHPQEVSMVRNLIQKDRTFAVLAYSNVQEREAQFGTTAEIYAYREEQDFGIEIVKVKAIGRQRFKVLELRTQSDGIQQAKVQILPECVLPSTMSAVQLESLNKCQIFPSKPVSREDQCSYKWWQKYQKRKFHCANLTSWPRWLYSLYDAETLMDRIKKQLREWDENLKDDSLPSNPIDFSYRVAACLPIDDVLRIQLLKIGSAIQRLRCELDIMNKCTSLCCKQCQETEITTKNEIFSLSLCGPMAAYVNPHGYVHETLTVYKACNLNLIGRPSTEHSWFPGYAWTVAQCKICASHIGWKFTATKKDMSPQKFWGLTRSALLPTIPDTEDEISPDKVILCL
Chain of ALK tyrosine kinase receptor (Q9UM73 whole entry): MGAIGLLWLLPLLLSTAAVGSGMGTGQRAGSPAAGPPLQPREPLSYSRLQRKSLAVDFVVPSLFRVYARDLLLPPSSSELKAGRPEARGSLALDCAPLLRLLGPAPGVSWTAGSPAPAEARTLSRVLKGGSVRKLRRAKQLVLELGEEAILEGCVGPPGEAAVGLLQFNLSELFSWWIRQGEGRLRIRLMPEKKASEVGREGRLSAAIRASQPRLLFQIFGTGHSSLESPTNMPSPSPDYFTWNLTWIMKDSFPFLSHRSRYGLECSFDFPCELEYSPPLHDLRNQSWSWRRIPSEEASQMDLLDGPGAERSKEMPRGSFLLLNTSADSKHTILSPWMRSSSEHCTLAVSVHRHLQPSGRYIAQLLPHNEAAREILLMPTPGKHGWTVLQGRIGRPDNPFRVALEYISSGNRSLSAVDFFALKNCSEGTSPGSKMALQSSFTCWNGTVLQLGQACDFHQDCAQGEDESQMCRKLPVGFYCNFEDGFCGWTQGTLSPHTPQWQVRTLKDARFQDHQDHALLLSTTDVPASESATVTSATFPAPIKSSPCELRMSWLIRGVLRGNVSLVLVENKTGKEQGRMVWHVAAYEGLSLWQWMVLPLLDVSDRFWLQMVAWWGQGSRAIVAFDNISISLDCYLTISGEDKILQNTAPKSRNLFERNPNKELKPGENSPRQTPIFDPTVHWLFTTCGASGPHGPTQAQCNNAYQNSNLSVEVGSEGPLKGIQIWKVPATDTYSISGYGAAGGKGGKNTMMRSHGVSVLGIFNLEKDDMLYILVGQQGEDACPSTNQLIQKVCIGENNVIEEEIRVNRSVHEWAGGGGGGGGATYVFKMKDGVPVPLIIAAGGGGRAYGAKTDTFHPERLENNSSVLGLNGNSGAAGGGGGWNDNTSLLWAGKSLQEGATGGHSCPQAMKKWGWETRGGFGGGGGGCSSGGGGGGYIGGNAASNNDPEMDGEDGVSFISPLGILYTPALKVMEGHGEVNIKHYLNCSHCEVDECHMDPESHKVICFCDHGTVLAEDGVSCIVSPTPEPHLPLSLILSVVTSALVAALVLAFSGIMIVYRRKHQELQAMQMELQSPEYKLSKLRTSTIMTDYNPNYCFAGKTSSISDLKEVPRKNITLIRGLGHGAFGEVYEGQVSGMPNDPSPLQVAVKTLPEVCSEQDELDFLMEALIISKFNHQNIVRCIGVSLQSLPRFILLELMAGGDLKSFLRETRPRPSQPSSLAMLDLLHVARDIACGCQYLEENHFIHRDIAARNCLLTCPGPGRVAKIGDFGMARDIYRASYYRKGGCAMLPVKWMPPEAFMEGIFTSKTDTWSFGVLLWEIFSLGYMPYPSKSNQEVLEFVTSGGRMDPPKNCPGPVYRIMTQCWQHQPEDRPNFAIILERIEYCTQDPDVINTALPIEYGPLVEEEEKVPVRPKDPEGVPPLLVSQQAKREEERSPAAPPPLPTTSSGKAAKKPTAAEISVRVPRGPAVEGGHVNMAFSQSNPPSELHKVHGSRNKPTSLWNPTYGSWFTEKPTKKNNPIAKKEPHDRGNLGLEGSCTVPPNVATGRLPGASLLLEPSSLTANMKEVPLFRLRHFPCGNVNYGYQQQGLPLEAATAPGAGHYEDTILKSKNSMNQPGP

Structure (SMILES): Cc1ncsc1-c1ccc(CNC(=O)[C@@H]2C[C@@H](O)CN2C(=O)[C@@H](NC(=O)CCOCCOc2ccc(Nc3ncc(C(F)(F)F)c(NCc4cccc(N(C)S(C)(=O)=O)c4)n3)cc2)C(C)(C)C)cc1
DC50 [5]: 3 nM

Structure (SMILES): OCC[N+]12CN3CN(CN(C3)C1)C2
pIC50 (Focal adhesion kinase 1 [9]): 7.30

Structure (SMILES): O=C1CCc2cccc(Oc3nc(Nc4ccc(N5CCN(C(=S)SCCCN6CCOCC6)CC5)cc4)ncc3C(F)(F)F)c21
pIC50 (Focal adhesion kinase 1 [2]): 7.35

Structure (SMILES): Clc1cccc(Cn2ccc3cnc(Nc4ccc(N5CCNCC5)cc4)nc32)c1
pIC50 (Focal adhesion kinase 1 [10]): 8.00

Structure (SMILES): Cn1cc(-c2nn3cc(-c4ccco4)nc3s2)c2ccccc21
pIC50 (BXPC-3): 5.98

Structure (SMILES): CN(c1ncccc1CNc1nc(Nc2ccc(N3CCN(CCCCCCC(=O)NCCNc4cccc5c4C(=O)N(C4CCC(=O)NC4=O)C5=O)CC3)cc2)ncc1C(F)(F)F)S(C)(=O)=O (stereo not drawn)
half-life [16]: > 3.25 h

Structure (SMILES): O=C(CSC1Nc2ccccc2C(=O)N1c1ccccc1)N1CCN(c2ccccc2Cl)CC1 (stereo not drawn)
pIC50 (Focal adhesion kinase 1 [2]): 7.07
pIC50 [18]: 7.10

Further lines, results first:

pIC50 [1]: 8.80
pIC50 (Focal adhesion kinase 1 [2]): 8.27
pIC50 [3]: 9.09
Structure (SMILES): Cc1cc(Nc2ncc(Cl)c(Nc3ccccc3S(=O)(=O)C(C)C)n2)c(OC(C)C)cc1C1=CCN(C2CCOCC2)CC1 [APG-2449]

pKi (Focal adhesion kinase 1 [4]): 9.40
Structure (SMILES): CONC(=O)c1ccccc1Nc1cc(Nc2cc(C)nn2C(C)C)ncc1Cl [GSK-2256098]

pIC50 (Focal adhesion kinase 1 [2]): 7.72
Structure (SMILES): CNC(=O)c1ccccc1Nc1nc(Nc2ccc(N3CCN(C)CC3)cc2)nc2[nH]ccc12

IC50 [6]: 370 nM
Structure (SMILES): CNC(=O)c1ccccc1Nc1ncnc(Nc2cc(OC)c(OC)c(OC)c2)n1

pIC50 [7]: 7.80
pIC50 (Focal adhesion kinase 1 [8]): 6.88
Structure (SMILES): CNC(=O)c1ccccc1Nc1cc(Nc2ccc(NC(=O)CCCCCCC(=O)NO)cc2)ncc1Cl

pIC50 [11]: 9.22
Structure (SMILES): CNC(=O)c1ccc(Nc2ncc(C(F)(F)F)c(NCc3nccnc3N(C)S(C)(=O)=O)n2)cc1 [DEFACTINIB]

pIC50 (Focal adhesion kinase 1 [2]): 7.59
Structure (SMILES): CNC(=O)c1ccccc1Nc1cc(Nc2cc(C)c(C3CCN(CCCCCCNC(=O)COc4cccc5c4C(=O)N(C4CCC(=O)NC4=O)C5=O)CC3)cc2OC(C)C)ncc1C(F)(F)F (stereo not drawn)

pIC50 (Focal adhesion kinase 1 [12]): 8.99
pIC50 [13]: 8.41
Structure (SMILES): CNC(=O)c1ccccc1Nc1nc(Nc2ccc(NC(=O)CN3CCOCC3)c(C)c2)ncc1Cl

bioavailability [14]: 21%
Structure (SMILES): C=CC(=O)NCCNc1c(NCc2ccc(Nc3ncc(Cl)c(Nc4ccccc4C(=O)NC)n3)cc2)c(=O)c1=O

pIC50 (Focal adhesion kinase 1 [15]): 8.80
Structure (SMILES): CNC(=O)c1ccccc1Nc1cc(Nc2ccc(N3CCN(CC(=O)N[C@H](C(=O)N4C[C@H](O)C[C@H]4C(=O)N[C@@H](C)c4ccc(-c5scnc5C)cc4)C(C)(C)C)CC3)cc2OC)ncc1C(F)(F)F

pIC50 [17]: 6.21
Structure (SMILES): CNC(=O)c1ccccc1Nc1cc(Nc2cc(C)c(C3CCNCC3)cc2OC(C)C)ncc1C(F)(F)F
